Experiments:
HepG2.2.15 cells [1] = conditions: 10 μM, 7 days of culture
HBV genotype C = experiment: HBV infection of human primary hepatocytes; format: cell-based, hepatitis B virus; conditions: 10 μM virus treatment; day 12 after infection; P < 0.0001 vs Ctn
HepG2.2.15 cells [2] = experiment: HBsAg production from HepG2.2.15 cells; format: cell-based, hepatitis B virus; conditions: 10 μM, 7 days of culture
HepG2.2.15-derived HBV = HepG2.2.15-derived HBV infection of HepG2-NTCP cells, HBsAg in culture medium; format: cell-based, hepatitis B virus; conditions: 10 μM, HBsAg on Day 12 post-infection
HepG2-NTCP cells = experiment: Cell viability by WST-8 assay in HepG2-NTCP cells; conditions: 10 μM, 7 days, absorbance 450 nm
HBV = conditions: patients; ref Bogomolov et al., 2016; cited from earlier work

Row | Compound | Viability of treated HepG2.2.15 cells (HepG2.2.15 cells [1]) [%] | HBV DNA in the culture medium of HBV-infected human primary hepatocytes (HBV genotype C) | HBeAg level in HBV-infected human primary hepatocytes (HBV genotype C) | HBsAg level in the culture medium of HepG2.2.15 cells compared to Ctn-treated cells (HepG2.2.15 cells [2]) | Effect on HBsAg level of pre-treatment of cells only (HepG2.2.15-derived HBV; HepG2-NTCP cells treated 24 hours before infection) | Effect on HBsAg level of post-treatment of infected cells only (HepG2.2.15-derived HBV; during 11 days of culture after washing) | Cell viability, percentage of Ctn-treated cells (HepG2-NTCP cells) [%] | Improvement in clinical conditions and HBV DNA and HBsAg levels (HBV)
1 | CC[C@H](C)[C@H](NC(=O)[C@H](CCCCN)NC(=O)[C@H](CCC(=O)O)NC(=O)[C@H](CCCCN)NC(=O)[C@H](CO)NC(=O)[C@H](CCCCN)NC(=O)[C@H](CCCNC(=N)N)NC(=O)[C@H](Cc1ccccc1)NC(=O)[C@H](Cc1ccccc1)NC(=O)[C@H](CC(=O)O)NC(=O)CNC(=O)[C@H](CC(C)C)NC(=O)[C@@H](N)CC(C)C)C(=O)NCC(=O)N[C@@H](CCCCN)C(=O)N[C@@H](CCC(=O)O)C(=O)N[C@@H](Cc1ccccc1)C(=O)N[C@@H](CCCCN)C(=O)N[C@@H](CCCNC(=N)N)C(=O)N[C@H](C(=O)N[C@H](C(=O)N[C@@H](CCC(N)=O)C(=O)N[C@@H](CCCNC(=N)N)C(=O)N[C@H](C(=O)N[C@@H](CCCCN)C(=O)N[C@@H](CC(=O)O)C(=O)N[C@@H](Cc1ccccc1)C(=O)N[C@@H](CC(C)C)C(=O)N[C@@H](CCCNC(=N)N)C(=O)N[C@@H](CC(N)=O)C(=O)N[C@@H](CC(C)C)C(=O)N[C@H](C(=O)N1CCC[C@H]1C(=O)N[C@@H](CCCNC(=N)N)C(=O)N[C@H](C(=O)N[C@@H](CCC(=O)O)C(=O)N[C@@H](CO)C(=O)O)[C@@H](C)O)C(C)C)[C@@H](C)CC)C(C)C)[C@@H](C)CC [LL-37] | 88.6 | significant reductions | significant reductions | comparable | minimal | minimal | 77.6 ± 6.9 | –
2 | myrcludex-B | – | – | – | – | – | – | – | limited improvement
